According to patent US20060127980A1, “Human excitatory amino acid transporter-2 gene promoter and uses thereof” (priority 2003, published 2006):

Columns and labels:
hEAAT2 mRNA = experiment: Northern blot of hEAAT2 mRNA in PHFA treated with modulators; assay type: cell-based, human
Protocol: (§1) FIG. 4A-D. Effect of modulators of hEAAT2 activity on hEAAT2 expression and hEAAT2 promoter activity in PHFA. A. A Northern analysis of hEAAT2 and GAPDH mRNA expression following treatment with EGF (30 ng/ml), TGF-α (30 ng/ml), dbcAMP (200 μM, bromo-cAMP (100 μM) or TNF-α (200 U/ml) for 7 days. B. Nuclear run-on assays determining the relative rates of hEAAT2 and GAPDH transcription as a function of 7-day treatment with the same concentrations of the indicated agents. C. A time course of mRNA expression of hEAAT2 and GAPDH following treatment with EGF, bromo-cAMP or TNF-α (same concentrations as in A.). D. Fold luciferase activity in PHFA transfected with flhEAAT2Prom-luc or various deletion mutants of hEAAT2 and non-transfected controls treated with the indicated compounds for four days.
(§2) Northern and Western Blotting Assays. Total cellular RNA was isolated by the guanidinium/phenol extraction method and Northern blotting was performed as described (Huang et al., 2001, Oncogene 20(48):7051-7063; Su et al., 2000, Oncogene 19(30):3411-3421; Su et al., 2001, Nucleic Acids Res 29(8):1661-1671). Western blotting assays were performed as described (Su et al., 1998, Proc Natl Acad Sci USA 95(24):14400-14405; Su et al., 2002, Oncogene 21(22):3592-602).
Positive and Negative Regulation of hEAAT2 Transcription, Promoter Activity and mRNA Levels in PHFA. Several enhancers of GLT-1 expression in rat astrocytes have been identified, including epidermal growth factor (EGF), transforming growth factor-α (TGF-α) and dibutyryl cyclic AMP (dbcAMP) (Swanson et al., 1997, J Neurosci 17(3):932-940; Zelenaia et al., 2000, Mol Pharmacol 57(4):667-678). Based on these considerations, experiments were performed to determine if these agents similarly modify human hEAAT2 expression in PHFA. Consistent with previous observations in rat astrocytes, 7-day treatment with EGF, TGF-α, and two analogs of cAMP, dbcAMP and bromo-cAMP, stimulated hEAAT2 mRNA expression in PHFA, whereas TNF-α decreased expression (FIG. 4B). […] In contrast, TNF-α decreased expression by 48 h (FIG. 4C).

hEAAT2 transcription = experiment: Nuclear run-on assay of hEAAT2 transcription in PHFA; assay type: cell-based, human; settings: 7-day treatment
Protocol: as §1
Primer Extension Analysis and Nuclear Run-on Assays. Primer extension assays were performed as described (Su et al., 2000, Oncogene 19(30):3411-3421). A primer with the sequence 5′-[…]-3′ (SEQ ID NO:6) complementary to the 5′ UTR of the hEAAT2 cDNA was used for this assay. Nuclear run-on assays were performed as described (Su et al., 1997, Proc Natl Acad Sci USA 94(17):9125-9130).
To examine whether stimulation of hEAAT2 expression involves transcriptional changes, nuclear run-on assays were performed.

hEAAT2 promoter = experiment: flhEAAT2Prom-luc and deletion mutant luciferase reporter assay in PHFA treated with modulators; assay type: cell-based, human
Protocol: as §1
Construction of hEAAT2 Promoter Deletion Mutants and Performance of the Luciferase Assays. 5′-deletion mutants of the hEAAT2 promoter were made with exonuclease III digestion using the Erase-A-Base System (Promega) as described for the PEG-3 promoter (Su et al., 2000, Oncogene 19(30):3411-3421). The flhEAAT2Prom-luc and flhEAAT2Prom-luc deletion mutants were cloned into the pGL3-basic luciferase reporter vector (Promega) and luciferase reporter assays were performed as described (Su et al., 2000, Oncogene 19(30):3411-3421; Su et al., 2001, Nucleic Acids Res 29(8):1661-1671), except that instead of using lipofectamine, which was toxic to PHFA, the calcium phosphate precipitation transfection technique was used (Babiss et al., 1986, Proc Natl Acad Sci USA 83(7):2167-2171).
Preferential Expression of the hEAAT2 Promoter in PHFA and Deletion Analysis of the hEAAT2 Promoter. hEAAT2 is expressed in brain-derived cells, mainly astrocytes (Tanaka et al., 1997, Science 276(5319):1699-1702; Anderson et al., 2000, Glia 32(1):1-14). Experiments were performed to confirm hEAAT2 promoter activity in normal human astrocytes and to determine expression levels in other cell types (FIG. 2A). Primary early passage and established human normal and tumor cell lines were co-transfected with a putative full-length ˜2.5 kb hEAAT2 promoter, a SacII fragment extending from bp −2426 to bp +44, was cloned into the pGL3-basic vector (Promega), where it drove expression of the firefly luciferase (luc) gene, and a pSV-β-galactosidase expression plasmid. Relative fold expression of a full length hEAAT2 promoter-luciferase (flhEAAT2Prom-luc) construct was determined as described (Su et al., 2000, Oncogene 19(30):3411-3421; Su et al., 2001, Nucleic Acids Res 29(8):1661-1671), and activity versus transfection with a pSV-β-galactosidase plasmid was calculated as described (Su et al., 2000, Oncogene 19(30):3411-3421; Su et al., 2001, Nucleic Acids Res 29(8):1661-1671) to equalize for differences in transfection efficiency.
To examine further the relationship between hEAAT2 and treatment with the various glutamate transporter modulators, transient transfection assays were performed in PHFA using the flhEAAT2Prom-luc constructs and various deletions thereof (FIG. 4D). […] In the case of dbcAMP, promoter activity was enhanced by ˜3-fold.

hEAAT2 protein = experiment: Western blot of EAAT2 protein in PHFA; assay type: cell-based, human
Protocol: FIG. 5A-E. Effect of pharmacological inhibitors on hEAAT2 promoter activity, and mRNA and protein expression in PHFA following various treatment protocols. A. hEAAT2 promoter activity in PHFA, either untreated (−) or treated with EGF (30 ng/ml), in the absence (−) or presence (+) of KT5720 (5 μM), AG1478 (1 μM), PDTC (100 μM), wortmannin (WRT) (100 nM) or PD98049 (PD) (50 μM). B. hEAAT2 promoter activity in PHFA, either untreated (−) or treated with bromo-cAMP (250 μM) in the absence (−) or presence (+) of KT5720 (5 μM), AG1478 (1 μM), PDTC (100 μM), wortmannin (WRT) (100 nM) or PD98049 (PD) (50 μM). C. hEAAT2 promoter activity in PHFA, either untreated (−) or treated with TNF-α (200 U/ml), in the absence (−) or presence (+) of KT5720 (5 μM), AG1478 (1 μM), PDTC (100 μM), wortmannin (WRT) (100 nM) or PD98049 (PD) (50 μM). D. The effect of the various treatment protocols on hEAAT2 and GAPDH mRNA levels. Upper panel presents relative hEAAT2 RNA expression versus GAPDH expression relative to control untreated or treated samples based on scanning of autoradiograms. Lower panel, actual Northern blots. E. The effect of the various treatment protocols on EAAT2 and ACTIN protein levels. Upper panel presents relative EAAT2 protein expression versus ACTIN expression relative to control untreated or treated samples based on scanning of autoradiograms. Individual experiments were performed 3 times using triplicate samples and S.D. from the mean is presented.
as §2

hEAAT2 expression = hEAAT2 expression in PHFA, readout not specified; assay type: cell-based, human
glutamate uptake by PHFA = settings: Fine et al., 1996; cited from earlier work

Q: Which “hEAAT2 mRNA expression” value (hEAAT2 mRNA; 7-day treatment, EGF 30 ng/ml, TGF-α 30 ng/ml, dbcAMP 200 μM, bromo-cAMP 100 μM, TNF-α 200 U/ml) does the source give for TNF-α here?
A: The value was “decreased”.

Q: What about the “time by which hEAAT2 mRNA expression was changed” value (hEAAT2 mRNA; time course, bromo-cAMP enhanced, TNF-α decreased) of the same substance?
A: Its value is ≤ 48 h.

Q: And the “relative rate of transcription of hEAAT2 RNA compared with GAPDH” value (hEAAT2 transcription)?
A: Its value is “decreased”.

Q: And the “hEAAT2 promoter activity (in words)” value (hEAAT2 promoter)?
A: The value was “inhibited”.

Q: What about the hEAAT2 protein levels (hEAAT2 protein) of the same substance?
A: Its hEAAT2 protein levels is “decreased”.

Q: And the hEAAT2 expression (hEAAT2 expression)?
A: Its hEAAT2 expression is “decreased”.

Q: What about the “glutamate uptake by PHFA” value (glutamate uptake by PHFA) of the same substance?
A: The value was “inhibits”.
